Measurements: patent US20100249058A1, “FEED ADDITIVE AND FEED” (IDEMITSU KOSAN CO., LTD., priority 2006, published 2010)

Experiments:
Format in all cases: cell-based
[1] = system: Staphylococcus, Streptococcus, and Bacillus bacteria; test: Evaluation of antibiotic activities (summary over the tested bacteria); settings: result in words
Procedure: (§1) Minimum inhibitory concentrations (MICs) of each of the bacteria shown in Table 1 were measured for the MEL and rhamnolipids by the following procedures.
The above-mentioned bacteria were precultured in a bouillon medium for sensitivity determination (NISSUI PHARMACEUTICAL CO., LTD.). The concentrations of the bacteria in the culture solutions were adjusted to about 1.0×10^5 to 10^6 CFU/ml with physiological saline, and the bacteria were inoculated into the measurement mediums. As the measurement mediums, a medium for sensitivity measurement (NISSUI PHARMACEUTICAL CO., LTD.) was used for Staphylococcus aureus, Staphylococcus epidermidis, and Bacillus subtilis, and a blood agar medium (heart infusion medium: NISSUI PHARMACEUTICAL CO., LTD., sheep sterile defibrinated blood: Kohjin Bio Co. Ltd.) was used for Streptococcus suis and Streptococcus bovis. […] After completion of culture, the MICs were measured.
(§2) The MEL crude purified product obtained in section <1> (purity 69%) was used as MEL, and the rhamnolipid crude purified product obtained in section <2> (purity 55%) was used as rhamnolipids. Meanwhile, for the purpose of comparison, MICs of sucrose ester (sucrose manodecanoate: manufactured by SIGMA-ALDRICH Japan K.K.), mannose (manufactured by Wako Pure Chemical Industries, Ltd.), and rhamnose (manufactured by SIGMA-ALDRICH Japan K.K.) were measured.

Staphylococcus aureus = test: Minimum inhibitory concentration (MIC) measurement; settings: 37° C., about 20 hours, aerobic
Procedure: as §1
(§3) The above-mentioned bacteria were precultured in a bouillon medium for sensitivity determination (NISSUI PHARMACEUTICAL CO., LTD.). The concentrations of the bacteria in the culture solutions were adjusted to about 1.0×10^5 to 10^6 CFU/ml with physiological saline, and the bacteria were inoculated into the measurement mediums. As the measurement mediums, a medium for sensitivity measurement (NISSUI PHARMACEUTICAL CO., LTD.) was used for Staphylococcus aureus, Staphylococcus epidermidis, and Bacillus subtilis, and a blood agar medium (heart infusion medium: NISSUI PHARMACEUTICAL CO., LTD., sheep sterile defibrinated blood: Kohjin Bio Co. Ltd.) was used for Streptococcus suis and Streptococcus bovis. Culture was performed at 37° C. for about 20 hours under aerobic conditions for Staphylococcus aureus, Staphylococcus epidermidis, and Bacillus subtilis or under 5% CO2 conditions for Streptococcus suis and Streptococcus bovis. After completion of culture, the MICs were measured.
as §2

Streptococcus suis = test: Minimum inhibitory concentration (MIC) measurement; settings: blood agar medium, 37° C., about 20 hours, 5% CO2
Procedure: as §1, §3, §2

Bacillus subtilis = test: Minimum inhibitory concentration (MIC) measurement; settings: 37° C., about 20 hours, aerobic
Procedure: as §1, §3, §2

[2] = system: Staphylococcus epidermidis; test: Minimum inhibitory concentration (MIC) measurement; settings: 37° C., about 20 hours, aerobic
Procedure: as §1, §3, §2

Streptococcus bovis = test: Minimum inhibitory concentration (MIC) measurement; settings: blood agar medium, 37° C., about 20 hours, 5% CO2
Procedure: as §1, §3, §2

Row | Compound | antibiotic activities [1] | Minimum inhibitory concentration (MIC) (Staphylococcus aureus) | Minimum inhibitory concentration (MIC) (Streptococcus suis) | Minimum inhibitory concentration (MIC) (Bacillus subtilis) | Minimum inhibitory concentration (MIC) [2] | Minimum inhibitory concentration (MIC) (Streptococcus bovis)
1 | C[C@H](O)[C@H](O)[C@@H](O)[C@@H](O)C=O [Rhamnose, rhamnose] | no antibiotic activities | <1600 | <1600 | <1600 | <1600 | <1600
2 | sucrose manodecanoate [Sucrose ester] |  | <1600 | 800 | 400 | <1600 | 800
